# Literature values, collected in US10688070B2, “Serine glycerophospholipid preparation and method for treatment of seizures” (ENZYMOTEC LTD., priority 2013, dated 2020).
# Test system: Valproate adverse events (hepatotoxicity)
# Conditions: in vivo
smiles,measurement,value
"CC/C=C\C/C=C\C/C=C\C/C=C\C/C=C\CCCC(=O)O [EPA, Eicosapentanoic acid]",Effect on adverse events of Valproate,did not reveal the same effect
